Measurements as given in ChEMBL document CHEMBL4152339, “Design and synthesis of novel 1H-tetrazol-5-amine based potent antimicrobial agents: DNA topoisomerase IV and gyrase affinity evaluation supported by molecular docking studies” (Eur J Med Chem, 2018).
≈ marks a conversion by molar mass, not a printed value.

What was measured:
Format in all cases: functional
Staphylococcus aureus [1] = assay: Antibacterial activity against Staphylococcus aureus NCTC 4163 after 18 hrs by CLSI disc diffusion method; conditions: NCTC 4163, 18 h
Staphylococcus aureus [2] = assay: Antibacterial activity against Staphylococcus aureus ATCC 25923 after 18 hrs by CLSI disc diffusion method; conditions: ATCC 25923, 18 h
Staphylococcus aureus [3] = assay: Antibacterial activity against Staphylococcus aureus ATCC 6538 after 18 hrs by CLSI disc diffusion method; conditions: ATCC 6538, 18 h
[4] = tested on: Staphylococcus epidermidis; assay: Antibacterial activity against Staphylococcus epidermidis ATCC 12228 after 18 hrs by CLSI disc diffusion method; conditions: ATCC 12228, 18 h
[5] = tested on: Staphylococcus epidermidis; assay: Antibacterial activity against Staphylococcus epidermidis ATCC 35984 after 18 hrs by CLSI […] method; conditions: ATCC 35984, 18 h
Bacillus spizizenii = assay: Antibacterial activity against Bacillus subtilis ATCC 6633 after 18 hrs by CLSI disc diffusion method; conditions: ATCC 6633, 18 h
Bacillus cereus = assay: Antibacterial activity against Bacillus cereus ATCC 11778 after 18 hrs by CLSI disc diffusion method; conditions: ATCC 11778, 18 h
Enterococcus hirae = assay: Antibacterial activity against Enterococcus hirae ATCC 10541 after 18 hrs by CLSI disc diffusion method; conditions: ATCC 10541, 18 h
Enterococcus faecalis = assay: Antibacterial activity against Enterococcus faecalis ATCC 29212 after 18 hrs by CLSI disc diffusion method; conditions: ATCC 29212, 18 h
Micrococcus luteus [6] = assay: Antibacterial activity against Micrococcus luteus ATCC 10240 after 18 hrs by CLSI disc diffusion method; conditions: ATCC 10240, 18 h
Micrococcus luteus [7] = assay: Antibacterial activity against Micrococcus luteus ATCC 9341 after 18 hrs by CLSI disc diffusion method; conditions: ATCC 9341, 18 h
Escherichia coli [8] = assay: Antibacterial activity against Escherichia coli ATCC 10538 after 18 hrs by CLSI disc diffusion method; conditions: ATCC 10538, 18 h
Proteus vulgaris = assay: Antibacterial activity against Proteus vulgaris NCTC 4635 after 18 hrs by CLSI disc diffusion method; conditions: NCTC 4635, 18 h
Pseudomonas aeruginosa [9] = assay: Antibacterial activity against Pseudomonas aeruginosa ATCC 15442 after 18 hrs by CLSI disc diffusion method; conditions: ATCC 15442, 18 h
Pseudomonas aeruginosa [10] = assay: Antibacterial activity against Pseudomonas aeruginosa ATCC 27853 after 18 hrs by CLSI disc diffusion method; conditions: ATCC 27853, 18 h
[11] = tested on: Bordetella bronchiseptica; assay: Antibacterial activity against Bordetella bronchiseptica ATCC 4617 after 18 hrs by CLSI disc diffusion method; conditions: ATCC 4617, 18 h
Staphylococcus aureus [12] = assay: Antibacterial activity against Staphylococcus aureus 495 after 18 hrs by CLSI disc diffusion method; conditions: Staphylococcus aureus, 495, 18 h
Staphylococcus aureus [13] = assay: Antibacterial activity against Staphylococcus aureus 496 after 18 hrs by CLSI disc diffusion method; conditions: Staphylococcus aureus, 496, 18 h
Staphylococcus aureus [14] = assay: Antibacterial activity against Staphylococcus aureus 497 after 18 hrs by CLSI disc diffusion method; conditions: Staphylococcus aureus, 497, 18 h
Staphylococcus aureus [15] = assay: Antibacterial activity against Staphylococcus aureus 498 after 18 hrs by CLSI disc diffusion method; conditions: Staphylococcus aureus, 498, 18 h
Staphylococcus aureus [16] = assay: Antibacterial activity against Staphylococcus aureus 537 after 18 hrs by CLSI disc diffusion method; conditions: Staphylococcus aureus, 537, 18 h
Staphylococcus aureus [17] = assay: Antibacterial activity against Staphylococcus aureus 572 after 18 hrs by CLSI disc diffusion method; conditions: Staphylococcus aureus, 572, 18 h
Staphylococcus aureus [18] = assay: Antibacterial activity against Staphylococcus aureus 585 after 18 hrs by CLSI disc diffusion method; conditions: Staphylococcus aureus, 585, 18 h
Staphylococcus aureus [19] = assay: Antibacterial activity against Staphylococcus aureus 586 after 18 hrs by CLSI disc diffusion method; conditions: Staphylococcus aureus, 586, 18 h
[20] = tested on: Staphylococcus epidermidis; assay: Antibacterial activity against Staphylococcus epidermidis 423 after 18 hrs by CLSI disc diffusion method; conditions: Staphylococcus epidermidis, 423, 18 h
[21] = tested on: Staphylococcus epidermidis; assay: Antibacterial activity against Staphylococcus epidermidis 431 after 18 hrs by CLSI disc diffusion method; conditions: Staphylococcus epidermidis, 431, 18 h
[22] = tested on: Staphylococcus epidermidis; assay: Antibacterial activity against Staphylococcus epidermidis 432 after 18 hrs by CLSI disc diffusion method; conditions: Staphylococcus epidermidis, 432, 18 h
[23] = tested on: Staphylococcus epidermidis; assay: Antibacterial activity against Staphylococcus epidermidis 433 after 18 hrs by CLSI disc diffusion method; conditions: Staphylococcus epidermidis, 433, 18 h
[24] = tested on: Staphylococcus epidermidis; assay: Antibacterial activity against Staphylococcus epidermidis 469 after 18 hrs by CLSI disc diffusion method; conditions: Staphylococcus epidermidis, 469, 18 h
[25] = tested on: Staphylococcus epidermidis; assay: Antibacterial activity against Staphylococcus epidermidis 471 after 18 hrs by CLSI disc diffusion method; conditions: Staphylococcus epidermidis, 471, 18 h
[26] = tested on: Staphylococcus epidermidis; assay: Antibacterial activity against Staphylococcus epidermidis 510 after 18 hrs by CLSI disc diffusion method; conditions: Staphylococcus epidermidis, 510, 18 h
[27] = tested on: Staphylococcus epidermidis; assay: Antibacterial activity against Staphylococcus epidermidis 511 after 18 hrs by CLSI disc diffusion method; conditions: Staphylococcus epidermidis, 511, 18 h
Pseudomonas aeruginosa [28] = assay: Antibacterial activity against Pseudomonas aeruginosa 6m after 18 hrs by CLSI disc diffusion method
Pseudomonas aeruginosa [29] = assay: Antibacterial activity against Pseudomonas aeruginosa 7m after 18 hrs by CLSI disc diffusion method
Pseudomonas aeruginosa [30] = assay: Antibacterial activity against Pseudomonas aeruginosa 10m after 18 hrs by CLSI disc diffusion method
Pseudomonas aeruginosa [31] = assay: Antibacterial activity against Pseudomonas aeruginosa 11m after 18 hrs by CLSI disc diffusion method
Pseudomonas aeruginosa [32] = assay: Antibacterial activity against Pseudomonas aeruginosa 12m after 18 hrs by CLSI disc diffusion method
Pseudomonas aeruginosa [33] = assay: Antibacterial activity against Pseudomonas aeruginosa 16m after 18 hrs by CLSI disc diffusion method
Pseudomonas aeruginosa [34] = assay: Antibacterial activity against Pseudomonas aeruginosa 18m after 18 hrs by CLSI disc diffusion method
Pseudomonas aeruginosa [35] = assay: Antibacterial activity against Pseudomonas aeruginosa 31m after 18 hrs by CLSI disc diffusion method
Escherichia coli [36] = assay: Antibacterial activity against Escherichia coli ML 5 after 18 hrs by CLSI disc diffusion method; conditions: ML 5, 18 h
Escherichia coli [37] = assay: Antibacterial activity against Escherichia coli ML 6 after 18 hrs by CLSI disc diffusion method; conditions: ML 6, 18 h
Escherichia coli [38] = assay: Antibacterial activity against Escherichia coli ML 8 after 18 hrs by CLSI disc diffusion method; conditions: ML 8, 18 h
Escherichia coli [39] = assay: Antibacterial activity against Escherichia coli ML 9 after 18 hrs by CLSI disc diffusion method; conditions: ML 9, 18 h
Escherichia coli [40] = assay: Antibacterial activity against Escherichia coli ML 12 after 18 hrs by CLSI disc diffusion method; conditions: ML 12, 18 h
Escherichia coli [41] = assay: Antibacterial activity against Escherichia coli ML 15 after 18 hrs by CLSI disc diffusion method; conditions: ML 15, 18 h
Escherichia coli [42] = assay: Antibacterial activity against Escherichia coli ML 16 after 18 hrs by CLSI disc diffusion method; conditions: ML 16, 18 h
Escherichia coli [43] = assay: Antibacterial activity against Escherichia coli ML 17 after 18 hrs by CLSI disc diffusion method; conditions: ML 17, 18 h

Question: For `O=C(O)n1nnnc1Nn1cnnc1`, which MIC (Staphylococcus aureus [1]) is on record?
Answer: The MIC was 20 µM (≈ 3.92 µg/mL).

Question: And the MIC (Staphylococcus aureus [2])?
Answer: The MIC was 20 µM (≈ 3.92 µg/mL).

Question: And the MIC (Staphylococcus aureus [3])?
Answer: The MIC was 20 µM (≈ 3.92 µg/mL).

Question: What about the MIC [4] of the same compound?
Answer: Its MIC is 10 µM (≈ 1.96 µg/mL).

Question: And the MIC [5]?
Answer: Its MIC is 5 µM (≈ 0.981 µg/mL).

Question: And the MIC (Bacillus spizizenii)?
Answer: Its MIC is 5 µM (≈ 0.981 µg/mL).

Question: And the MIC (Bacillus cereus)?
Answer: Its MIC is 10 µM (≈ 1.96 µg/mL).

Question: What about the MIC (Enterococcus hirae) of the same compound?
Answer: The MIC was 10 µM (≈ 1.96 µg/mL).

Question: What about the MIC (Enterococcus faecalis) of the same compound?
Answer: The MIC was 10 µM (≈ 1.96 µg/mL).

Question: What about the MIC (Micrococcus luteus [6]) of the same compound?
Answer: The MIC was 20 µM (≈ 3.92 µg/mL).

Question: And the MIC (Micrococcus luteus [7])?
Answer: The MIC was 20 µM (≈ 3.92 µg/mL).

Question: And the MIC (Escherichia coli [8])?
Answer: The MIC was 20 µM (≈ 3.92 µg/mL).

Question: And the MIC (Proteus vulgaris)?
Answer: Its MIC is 10 µM (≈ 1.96 µg/mL).

Question: And the MIC (Pseudomonas aeruginosa [9])?
Answer: Its MIC is 1300 µM (≈ 256 µg/mL).

Question: And the MIC (Pseudomonas aeruginosa [10])?
Answer: The MIC was 1300 µM (≈ 256 µg/mL).

Question: What about the MIC [11] of the same compound?
Answer: Its MIC is 652 µM (≈ 128 µg/mL).

Question: And the MIC (Staphylococcus aureus [12])?
Answer: The MIC was 41 µM (≈ 8.04 µg/mL).

Question: And the MIC (Staphylococcus aureus [13])?
Answer: The MIC was 82 µM (≈ 16.1 µg/mL).

Question: And the MIC (Staphylococcus aureus [14])?
Answer: The MIC was 82 µM (≈ 16.1 µg/mL).

Question: What about the MIC (Staphylococcus aureus [15]) of the same compound?
Answer: The MIC was 82 µM (≈ 16.1 µg/mL).

Question: And the MIC (Staphylococcus aureus [16])?
Answer: Its MIC is 82 µM (≈ 16.1 µg/mL).

Question: What about the MIC (Staphylococcus aureus [17]) of the same compound?
Answer: Its MIC is 41 µM (≈ 8.04 µg/mL).

Question: And the MIC (Staphylococcus aureus [18])?
Answer: Its MIC is 82 µM (≈ 16.1 µg/mL).

Question: What about the MIC (Staphylococcus aureus [19]) of the same compound?
Answer: Its MIC is 82 µM (≈ 16.1 µg/mL).

Question: What about the MIC [20] of the same compound?
Answer: The MIC was 20 µM (≈ 3.92 µg/mL).

Question: What about the MIC [21] of the same compound?
Answer: The MIC was 20 µM (≈ 3.92 µg/mL).

Question: What about the MIC [22] of the same compound?
Answer: Its MIC is 41 µM (≈ 8.04 µg/mL).

Question: And the MIC [23]?
Answer: The MIC was 20 µM (≈ 3.92 µg/mL).

Question: What about the MIC [24] of the same compound?
Answer: The MIC was 20 µM (≈ 3.92 µg/mL).

Question: What about the MIC [25] of the same compound?
Answer: The MIC was 41 µM (≈ 8.04 µg/mL).

Question: What about the MIC [26] of the same compound?
Answer: Its MIC is 20 µM (≈ 3.92 µg/mL).

Question: And the MIC [27]?
Answer: Its MIC is 20 µM (≈ 3.92 µg/mL).

Question: What about the MIC (Pseudomonas aeruginosa [28]) of the same compound?
Answer: Its MIC is 326 µM (≈ 63.9 µg/mL).

Question: What about the MIC (Pseudomonas aeruginosa [29]) of the same compound?
Answer: Its MIC is 326 µM (≈ 63.9 µg/mL).

Question: What about the MIC (Pseudomonas aeruginosa [30]) of the same compound?
Answer: The MIC was 326 µM (≈ 63.9 µg/mL).

Question: What about the MIC (Pseudomonas aeruginosa [31]) of the same compound?
Answer: Its MIC is 652 µM (≈ 128 µg/mL).

Question: What about the MIC (Pseudomonas aeruginosa [32]) of the same compound?
Answer: The MIC was 326 µM (≈ 63.9 µg/mL).

Question: What about the MIC (Pseudomonas aeruginosa [33]) of the same compound?
Answer: Its MIC is 326 µM (≈ 63.9 µg/mL).

Question: What about the MIC (Pseudomonas aeruginosa [34]) of the same compound?
Answer: Its MIC is 652 µM (≈ 128 µg/mL).

Question: What about the MIC (Pseudomonas aeruginosa [35]) of the same compound?
Answer: The MIC was 326 µM (≈ 63.9 µg/mL).

Question: What about the MIC (Escherichia coli [36]) of the same compound?
Answer: The MIC was 326 µM (≈ 63.9 µg/mL).

Question: And the MIC (Escherichia coli [37])?
Answer: The MIC was 1300 µM (≈ 256 µg/mL).

Question: What about the MIC (Escherichia coli [38]) of the same compound?
Answer: The MIC was 326 µM (≈ 63.9 µg/mL).

Question: And the MIC (Escherichia coli [39])?
Answer: The MIC was 326 µM (≈ 63.9 µg/mL).

Question: And the MIC (Escherichia coli [40])?
Answer: Its MIC is over 1300 µM.

Question: What about the MIC (Escherichia coli [41]) of the same compound?
Answer: The MIC was 1300 µM (≈ 256 µg/mL).

Question: What about the MIC (Escherichia coli [42]) of the same compound?
Answer: The MIC was 326 µM (≈ 63.9 µg/mL).

Question: And the MIC (Escherichia coli [43])?
Answer: Its MIC is 326 µM (≈ 63.9 µg/mL).
